Test results reported in US8410178B2, “CIS 3,4-dihydroxy-2-(3-methylbutanoyl)-5-(3-methylbutyl)-4-(4-methylpentanoyl)cyclopent-2-en-1-derivatives, substantially enantiomerically pure compositions and methods” (KinDex Therapeutics, LLC, priority 2010, dated 2013).
Where two headings read alike, the source gives them in different places.

Key:
GPR120 = molecular target: T1, GPR120 (Homo sapiens, UniProt Q5NUL3); test: GPR120 activity, intracellular calcium response in CHO-K1/GPR120/Gα15 cells; format: cell-based
T1 sequence (Q5NUL3 1-361): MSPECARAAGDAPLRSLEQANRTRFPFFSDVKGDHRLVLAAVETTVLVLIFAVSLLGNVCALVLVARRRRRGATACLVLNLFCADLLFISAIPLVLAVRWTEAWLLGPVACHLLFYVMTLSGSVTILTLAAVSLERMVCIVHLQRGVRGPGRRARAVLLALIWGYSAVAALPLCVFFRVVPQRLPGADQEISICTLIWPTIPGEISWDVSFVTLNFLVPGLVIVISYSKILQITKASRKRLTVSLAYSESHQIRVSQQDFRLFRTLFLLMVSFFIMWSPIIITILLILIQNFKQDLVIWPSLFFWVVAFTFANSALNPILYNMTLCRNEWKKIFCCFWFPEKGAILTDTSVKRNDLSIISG
Protocol: GPR120 activity was measured by intracellular calcium response. CHO-K1/GPR120/Gα15 cells were regularly passaged to maintain optimal cell health and cultured in Ham's F12 supplemented with 10% fetal bovine serum, 200 μg/mL zeocin, and 100 μg/mL hygromycin. Cells were seeded in a 384-well black-wall, clear-bottom plate at a density of 20,000 cell per well in 20 μL of growth medium 18 hours prior to the start of the experiment, and maintained at 37° C./5% CO2. Cells were loaded with calcium-4, and baseline fluorescence readings were obtained from 1 second to 20 seconds using a fluorescent imaging plate reader (FLIPR). At 20 seconds, (+)-KDT501 (5× final concentration) was added to the reading plate, and the fluorescence signal was monitored for 100 seconds (21 seconds to 120 seconds). α-linolenic acid (LA), eicosapentaenoic acid (EPA), and docosahexaenoic acid (DHA) were used as controls. Data acquisition and analysis was performed using ScreenWorks (version 3.1) and exported to Excel. The average fluorescence value for the first 20 seconds was calculated as the baseline reading. The relative fluorescent unit (ΔRFU) intensity values were calculated with the maximal fluorescent units (21 s to 120 s), subtracting the baseline reading. Data analysis wizard written by GenScript was used to analyze EC50. Dose response curves of antagonist were fitted using the GraphPad Prism 4 four parameter logistic equation Y=Bottom+(Top−Bottom)/(1+10^((LogIC50−X)*HillSlope)), where X is the logarithm of concentration and Y is response.

PPARγ = molecular target: T2, PPARγ (Homo sapiens, UniProt P37231); test: PPARγ luciferase reporter assay; format: cell-based; details: reporter cells, 20 hours
T2 sequence (P37231 1-505): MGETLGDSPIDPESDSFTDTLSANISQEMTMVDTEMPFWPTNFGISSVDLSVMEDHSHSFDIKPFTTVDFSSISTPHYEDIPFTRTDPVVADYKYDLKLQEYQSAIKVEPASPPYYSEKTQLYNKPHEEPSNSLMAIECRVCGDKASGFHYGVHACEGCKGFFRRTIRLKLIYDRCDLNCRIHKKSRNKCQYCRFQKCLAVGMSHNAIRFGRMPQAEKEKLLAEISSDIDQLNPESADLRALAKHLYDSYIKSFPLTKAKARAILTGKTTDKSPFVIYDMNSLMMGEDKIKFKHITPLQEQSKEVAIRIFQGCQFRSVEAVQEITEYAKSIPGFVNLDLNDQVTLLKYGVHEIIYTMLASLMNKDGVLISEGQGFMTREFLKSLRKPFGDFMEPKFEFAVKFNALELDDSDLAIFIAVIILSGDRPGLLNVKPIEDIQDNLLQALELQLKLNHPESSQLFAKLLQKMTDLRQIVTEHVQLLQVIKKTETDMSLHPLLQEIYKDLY
Protocol: The functional effect of (+)-KDT501 on PPARα, PPARδ, and PPARγ activity was evaluated using a PPAR reporter assay (INDIGO Biosciences, PA). This assay utilizes non-human mammalian cells engineered to provide constitutive high level expression of PPARα, PPARδ, or PPARγ and containing a luciferase report gene specific to the appropriate PPAR. Following activation by agonist binding, PPAR induces expression of the luciferase reporter gene. Luciferase activity therefore provides a surrogate for measuring PPAR activity in agonist-treated cells.
Reporter cells were plated on a 96-well plate at 100 μL per well, and 100 μL of (+)-KDT501 at various final concentrations (25, 12.5, 6.25, 3.125, 1.56 and 0.78 μM) was added to each well. […] 0.1% DMSO was also used as a negative control for each assay. Plates are incubated for 20 hours in a humidified incubator at 37° C. and 5% CO2. After incubation, cell medium was discarded and the cells were treated with 100 μL of luciferase detection reagent for 15 minutes. Plates were analyzed using a luminometer (Victor2, Perkin Elmer). Average relative light unit (RLU) and standard deviation were analyzed using GraphPad Prism.
The PPAR activity assays were repeated as described above using both (+)-KDT501(12.5, 6.25, 3.125, 1.56, and 0.78 μM) and (−)-KDT501 (25, 12.5, 6.25, 3.125, 1.56, and 0.78 μM).

[1] = system: Zucker diabetic fatty (ZDF) rats; test: Glucose and triglyceride levels in a rat diabetes model; format: in vivo; details: 200 mg/kg orally twice a day
Protocol: 64 six-week-old male Zucker diabetic fatty (ZDF) rats with glucose levels of 175-300 mg/dL were randomized and divided into eight dosing groups: 1) vehicle only (0.5% methylcellulose (w/v), 0.2% Tween 80 (w/v); negative control), 2) (+)-KDT501 25 mg/kg, 3) (+)-KDT501 50 mg/kg, 4) (+)-KDT501 100 mg/kg, 5) (+)-KDT501 200 mg/kg, 6) metformin 200 mg/kg (positive control), 7) metformin 200 mg/kg and (+)-KDT501 100 mg/kg, and 8) pioglitazone 30 mg/kg (positive control). Drugs were administered orally twice a day for 33 days.
Animals were weighed at randomization and once per week thereafter, with administration dosages calculated based on the most recent body weight measurements. Blood samples were collected by tail bleed three days prior to randomization, at randomization, and at days 15 and 29 after the start of treatment. These blood samples were used to perform whole blood glucose evaluations using a glucometer, as well as to measure blood triglyceride levels. Body composition was tested by qNMR on days 2 and 29 after the start of treatment. An oral glucose tolerance test (OGTT) was performed on days 31 and 32 after the start of treatment. Rats underwent an overnight fast prior to OGTT, and tail bleeds for glucose and insulin were performed pre-glucose bolus and at 15, 30, 60, 90, and 120 minutes post-glucose bolus. The glucose bolus was 2 g dextrose/kg of body weight. On day 33, a cardiac puncture was performed for PK analysis.

[2] = system: diet induced obese (DIO) mice; test: Glucose, insulin, HbA1C and fat mass in high fat diet-induced obesity (DIO) mouse model; format: in vivo; details: 200 mg/kg orally twice a day
Protocol: 14 week-old male mice were randomized and divided into seven dosing groups with 16 animals in each group: 1) vehicle only (0.5% methylcellulose (w/v), 0.2% Tween 80 (w/v); negative control), 2) (+)-KDT501 25 mg/kg, 3) (+)-KDT501 50 mg/kg, 4) (+)-KDT501 100 mg/kg, 5) (+)-KDT501 200 mg/kg, 6) metformin 200 mg/kg (positive control), and 7) pioglitazone 30 mg/kg (positive control). Drugs were administered orally twice a day for 30 days.
Animals were weighed at randomization and once per week thereafter, with administration dosages calculated based on the most recent body weight measurements. The mice were maintained on a high fat diet (40% Kcal) (TD95217; prepared by Covance Laboratories, Greenfield, Ind.). Body composition was tested by qNMR on days −5 and 28 after the start of treatment. […]. An oral glucose tolerance test (OGTT) was performed on day 30 after the start of treatment. Mice underwent an overnight fast prior to OGTT, and tail bleeds for glucose and insulin were performed pre-glucose bolus and at 15, 30, 60, 90, and 120 minutes post-glucose bolus. The glucose bolus was 2 g dextrose/kg of body weight. OGTT results were evaluated by area under the curve (AUC) measurements and Dunnett's test.

[3] = CHO-K1/GPR120/Gα15 cells, calcium response, read-out: GPR120 agonistic activity EC50

`CC/C=C\C/C=C\C/C=C\C/C=C\C/C=C\C/C=C\CCC(=O)O` [DHA, docosahexaenoic acid] showed an EC50 (GPR120; [3]) of 35.3 µM.
In the case of `CC/C=C\C/C=C\C/C=C\CCCCCCCC(=O)O` [α-LA, α-linolenic acid], the EC50 (GPR120) is reported as 36.1 µM.
In the case of `CCCc1nc2c(C)cc(-c3nc4ccccc4n3C)cc2n1Cc1ccc(-c2ccccc2C(=O)O)cc1` [Telmisartan, telmisartan, reference compound], the PPARγ activity (PPARγ) is reported as “increased PPARγ activity”.
In the case of `CN(C)C(=N)N=C(N)N` [metformin, reference compound], the “whole blood glucose levels” value [1] is reported as “slight increase”, the triglyceride levels ([1]; days 15 and 29) is reported as “increase” and the HbA1C ([2]; day 29, versus vehicle-only) is reported as “significant difference”. The “blood glucose levels from the OGTT” value ([2]; day 30) was “significant decrease”, the “insulin levels from the OGTT” value ([2]; day 30) was “significant decrease” and the fat mass ([2]; qNMR day 28) was “reduction in fat mass”.
In the case of `CC/C=C\C/C=C\C/C=C\C/C=C\C/C=C\CCCC(=O)O` [EPA, eicosapentaenoic acid], the EC50 (GPR120; [3]) is reported as 116 µM.
